Reference: EP0238198A2, “Method of modifying the lipid structure function and expression of cell membranes and pharmaceutical compositions for use therein” (Habib, Nagy Adly, priority 1986, dated 1987)
Where two headings read alike, the source gives them in different places.

Key:
[1] = test system: 833K (non-seminomatous testicular germ cell tumour); assay: tumour cell colony inhibition test (clonogenic assay); format: cell-based, human
Experimental: (§1) Cells from rat mammary carcinoma (Sp 22), primary rat fibroblasts (from alveolar tissue) and four rat hepatoma cell lines (D23, D261, D262A and D262B) were studied.
(§2) The human tumour cell lines were investigated as follows: 500 exponentially-growing RTl12 (transitional cell carcinoma of the bladder) cells or two hundred 833K (non-seminomatous testicuLar.germ cell tumour) cells were plated in 5 cm dishes in RPMI1640 medium supplemented with 5% foetal calf serum and 2 mM 1-glutamine. […] Following a further 14 days incubation colonies were fixed, stained and counted. Colony-forming efficiency of the treated cells was expressed as a proportion of that in the controls. The experiments were repeated three times to permit statistical analysis.

[2] = test system: RT112 (transitional cell carcinoma of the bladder); assay: as above; format: cell-based, human
Experimental: as §1, §2

[3] = test system: type 2 herpes simplex virus (HSV); assay: HSV2 replication in human embryonic lung fibroblasts (virus yield); format: cell-based, HSV type 2; conditions: Human alphaherpesvirus 2, Fibroblast, 28 h; for inhibition at 25 µM: stearic acid 25 µM; for inhibition at 50 µM: stearic acid 50 µM; for inhibition at 100 µM: stearic acid 100 µM
Experimental: Stearic and iodinated stearic acids were assayed for their inhibitory effects on the replication of type 2 herpes simplex virus (HSV) in sub-confluent monolayer cultures of human embryonic lung fibroblasts. […] This was accomplished by reacting hydriodic acid with oleic acid in acetic acid at 20°C. Excess iodine was removed at the end of the reaction by the addition of an excess of sodium thiosulphate, and the product fatty acid was extracted into hexane.
Bovine serum albumin conjugates of the fatty acids (prepared according to the method of A.A.Spector and-J.C.Hoak, J.Anal.Biochem. 1969, 32, 297-302) were added to the cell culture medium at various concentrations in the range 25 - 100 micromolar final concentration and at various times before and after (from 0 to 12 hours) infection with partially purified clinical isolates of HSV type 2, at a multiplicity of infection of 0.1 plaque forming units/cell.
28 hours after infection the titre of infectious virus in the culture supernatants was determined by standard infectious centre techniques on fresh human embryonic lung fibroblasts.

[4] = Homo sapiens, 833K, 336 h, read-out: Colony-forming ability (± standard error)
[5] = summary of Table 3, dose-related response
[6] = Homo sapiens, RT-112, 336 h, read-out: Colony-forming ability (± standard error)
[7] = time relative to infection 0 hours, read-out: % reduction in virus yield compared with control cultures
[8] = time relative to infection 1 hours, read-out: % reduction in virus yield compared with control cultures
[9] = time relative to infection 2 hours, read-out: % reduction in virus yield compared with control cultures
[10] = time relative to infection 3 hours, read-out: % reduction in virus yield compared with control cultures
[11] = time relative to infection 4 hours, read-out: % reduction in virus yield compared with control cultures
[12] = time relative to infection 8 hours, read-out: % reduction in virus yield compared with control cultures
[13] = time relative to infection 12 hours, read-out: % reduction in virus yield compared with control cultures
[14] = time relative to infection -1 hours, read-out: % reduction in virus yield compared with control cultures
[15] = time relative to infection -2 hours, read-out: % reduction in virus yield compared with control cultures
[16] = time relative to infection -3 hours, read-out: % reduction in virus yield compared with control cultures
[17] = time relative to infection -4 hours, read-out: % reduction in virus yield compared with control cultures
[18] = time relative to infection -8 hours, read-out: % reduction in virus yield compared with control cultures
[19] = time relative to infection -12 hours, read-out: % reduction in virus yield compared with control cultures

SMILES: CCCCCCCCCCCCCCCCCC(=O)O [stearic acid, octadecanoic acid]
- activity at 1 µg/mL [1, 4]: 81.5%
- activity at 2 µg/mL [1, 4]: 70.4%
- activity at 4 µg/mL [1, 4]: 27.5%
- activity at 6 µg/mL [1, 4]: 0.9%
- activity at 8 µg/mL [1, 4]: 0%
- activity at 10 µg/mL [1, 4]: 0%
- inhibition of colony formation [1, 5]: inhibited colony formation
- activity at 1 µg/mL [2, 6]: 92%
- activity at 2 µg/mL [2, 6]: 86%
- activity at 4 µg/mL [2, 6]: 45%
- activity at 6 µg/mL [2, 6]: 4.6%
- activity at 8 µg/mL [2, 6]: 0.3%
- activity at 10 µg/mL [2, 6]: 0%
- inhibition of colony formation [2, 5]: inhibited colony formation
- inhibition at 75 µM ([3]; 75 micromolar in the culture medium, cells treated for 3-4 hours before infection, read-out: maximum anti-viral activity (reduction in virus yield)): 48%
- inhibition at 25 µM [3, 7]: 0%
- inhibition at 25 µM [3, 8]: 5%
- inhibition at 25 µM [3, 9]: 0%
- inhibition at 25 µM [3, 10]: 10%
- inhibition at 25 µM [3, 11]: 1%
- inhibition at 25 µM [3, 12]: 0%
- inhibition at 25 µM [3, 13]: 3%
- inhibition at 25 µM [3, 14]: 6%
- inhibition at 25 µM [3, 15]: 14%
- inhibition at 25 µM [3, 16]: 4%
- inhibition at 25 µM [3, 17]: 2%
- inhibition at 25 µM [3, 18]: 10%
- inhibition at 25 µM [3, 19]: 0%
- inhibition at 50 µM [3, 7]: 7%
- inhibition at 50 µM [3, 8]: 8%
- inhibition at 50 µM [3, 9]: 0%
- inhibition at 50 µM [3, 10]: 10%
- inhibition at 50 µM [3, 11]: 0%
- inhibition at 50 µM [3, 12]: 5%
- inhibition at 50 µM [3, 13]: 9%
- inhibition at 50 µM [3, 14]: 27%
- inhibition at 50 µM [3, 15]: 30%
- inhibition at 50 µM [3, 16]: 27%
- inhibition at 50 µM [3, 17]: 8%
- inhibition at 50 µM [3, 18]: 0%
- inhibition at 50 µM [3, 19]: 0%
- inhibition at 75 µM ([3]; stearic acid 75 µM, time relative to infection 0 hours, read-out: % reduction in virus yield compared with control cultures): 18%
- inhibition at 75 µM ([3]; stearic acid 75 µM, time relative to infection 1 hours, read-out: % reduction in virus yield compared with control cultures): 0%
- inhibition at 75 µM ([3]; stearic acid 75 µM, time relative to infection 2 hours, read-out: % reduction in virus yield compared with control cultures): 9%
- inhibition at 75 µM ([3]; stearic acid 75 µM, time relative to infection 3 hours, read-out: % reduction in virus yield compared with control cultures): 0%
- inhibition at 75 µM ([3]; stearic acid 75 µM, time relative to infection 4 hours, read-out: % reduction in virus yield compared with control cultures): 3%
- inhibition at 75 µM ([3]; stearic acid 75 µM, time relative to infection 8 hours, read-out: % reduction in virus yield compared with control cultures): 10%
- inhibition at 75 µM ([3]; stearic acid 75 µM, time relative to infection 12 hours, read-out: % reduction in virus yield compared with control cultures): 5%
- inhibition at 75 µM ([3]; stearic acid 75 µM, time relative to infection -1 hours, read-out: % reduction in virus yield compared with control cultures): 41%
- inhibition at 75 µM ([3]; stearic acid 75 µM, time relative to infection -2 hours, read-out: % reduction in virus yield compared with control cultures): 38%
- inhibition at 75 µM ([3]; stearic acid 75 µM, time relative to infection -3 hours, read-out: % reduction in virus yield compared with control cultures): 47%
- inhibition at 75 µM ([3]; stearic acid 75 µM, time relative to infection -4 hours, read-out: % reduction in virus yield compared with control cultures): 48%
- inhibition at 75 µM ([3]; stearic acid 75 µM, time relative to infection -8 hours, read-out: % reduction in virus yield compared with control cultures): 3%
- inhibition at 75 µM ([3]; stearic acid 75 µM, time relative to infection -12 hours, read-out: % reduction in virus yield compared with control cultures): 8%
- inhibition at 100 µM [3, 7]: 11%
- inhibition at 100 µM [3, 8]: 14%
- inhibition at 100 µM [3, 9]: 8%
- inhibition at 100 µM [3, 10]: 11%
- inhibition at 100 µM [3, 11]: 0%
